Data taken from ChEMBL document CHEMBL1629608, “Variations in amino acid composition of antisense peptide-phosphorodiamidate morpholino oligomer affect potency against Escherichia coli in vitro and in vivo” (Antimicrob Agents Chemother, 2009).
In brackets after ≈: the same amount, converted by molar mass.

These molecules were tested on Escherichia coli (assay: Antibacterial activity against Escherichia coli K-12 W3110 by microdilution method). Details: K-12 substr. W3110.
Type: functional

Row | MIC | SMILES
1 | > 80 µM | Cc1cn([C@H]2CN(P(=O)(OC[C@@H]3CN(P(=O)(OC[C@@H]4CN(P(=O)(OC[C@@H]5CN(P(=O)(OC[C@@H]6CN(P(=O)(OC[C@@H]7CN(P(=O)(OC[C@@H]8CN(P(=O)(OC[C@@H]9CN(P(=O)(OC[C@@H]%10CNC[C@H](n%11cnc%12c(=O)[nH]c(N)nc%12%11)O%10)N(C)C)C[C@H](n%10cc(C)c(=O)[nH]c%10=O)O9)N(C)C)C[C@H](n9cnc%10c(=O)[nH]c(N)nc%109)O8)N(C)C)C[C@H](n8cnc9c(N)ncnc98)O7)N(C)C)C[C@H](n7cc(C)c(=O)[nH]c7=O)O6)N(C)C)C[C@H](n6cnc7c(N)ncnc76)O5)N(C)C)C[C@H](n5cnc6c(=O)[nH]c(N)nc65)O4)N(C)C)C[C@H](n4ccc(N)nc4=O)O3)N(C)C)C[C@@H](COP(=O)(N(C)C)N3C[C@@H](COP(=O)(N(C)C)N4C[C@@H](COP(=O)(N(C)C)N5CCN(C(=O)CCNC(=O)CCCCCNC(=O)[C@H](CCCCN)NC(=O)CCCCCNC(=O)[C@H](CCCCN)NC(=O)CCCCCNC(=O)[C@H](CCCCN)NC(=O)CCCCCNC(=O)[C@H](CCCCN)NC(=O)CCCCCNC(=O)[C@H](CCCCN)NC(=O)CCCCCNC(=O)[C@@H](N)CCCCN)CC5)O[C@@H](n5ccc(N)nc5=O)C4)O[C@@H](n4cc(C)c(=O)[nH]c4=O)C3)O2)c(=O)[nH]c1=O (stereo partly drawn)
2 | 2.5 µM (≈ 14.1 µg/mL) | Cc1cn([C@H]2CN(P(=O)(OC[C@@H]3CN(P(=O)(OC[C@@H]4CN(P(=O)(OC[C@@H]5CN(P(=O)(OC[C@@H]6CN(P(=O)(OC[C@@H]7CN(P(=O)(OC[C@@H]8CN(P(=O)(OC[C@@H]9CN(P(=O)(OC[C@@H]%10CNC[C@H](n%11cnc%12c(=O)[nH]c(N)nc%12%11)O%10)N(C)C)C[C@H](n%10cc(C)c(=O)[nH]c%10=O)O9)N(C)C)C[C@H](n9cnc%10c(=O)[nH]c(N)nc%109)O8)N(C)C)C[C@H](n8cnc9c(N)ncnc98)O7)N(C)C)C[C@H](n7cc(C)c(=O)[nH]c7=O)O6)N(C)C)C[C@H](n6cnc7c(N)ncnc76)O5)N(C)C)C[C@H](n5cnc6c(=O)[nH]c(N)nc65)O4)N(C)C)C[C@H](n4ccc(N)nc4=O)O3)N(C)C)C[C@@H](COP(=O)(N(C)C)N3C[C@@H](COP(=O)(N(C)C)N4C[C@@H](COP(=O)(N(C)C)N5CCN(C(=O)CCNC(=O)CCCCCNC(=O)[C@H](CCCNC(=N)N)NC(=O)CCNC(=O)[C@H](CCCNC(=N)N)NC(=O)[C@H](CCCNC(=N)N)NC(=O)CCCCCNC(=O)[C@H](CCCNC(=N)N)NC(=O)NC(=O)[C@H](CCCNC(=N)N)NC(=O)CCNC(=O)[C@H](CCCNC(=N)N)NC(=O)[C@H](CCCNC(=N)N)NC(=O)CCCCCNC(=O)[C@@H](N)CCCNC(=N)N)CC5)O[C@@H](n5ccc(N)nc5=O)C4)O[C@@H](n4cc(C)c(=O)[nH]c4=O)C3)O2)c(=O)[nH]c1=O (stereo partly drawn)
3 | 80 µM (≈ 394 µg/mL) | Cc1cn([C@H]2CN(P(=O)(OC[C@@H]3CN(P(=O)(OC[C@@H]4CN(P(=O)(OC[C@@H]5CN(P(=O)(OC[C@@H]6CN(P(=O)(OC[C@@H]7CN(P(=O)(OC[C@@H]8CN(P(=O)(OC[C@@H]9CN(P(=O)(OC[C@@H]%10CNC[C@H](n%11cnc%12c(=O)[nH]c(N)nc%12%11)O%10)N(C)C)C[C@H](n%10cc(C)c(=O)[nH]c%10=O)O9)N(C)C)C[C@H](n9cnc%10c(=O)[nH]c(N)nc%109)O8)N(C)C)C[C@H](n8cnc9c(N)ncnc98)O7)N(C)C)C[C@H](n7cc(C)c(=O)[nH]c7=O)O6)N(C)C)C[C@H](n6cnc7c(N)ncnc76)O5)N(C)C)C[C@H](n5cnc6c(=O)[nH]c(N)nc65)O4)N(C)C)C[C@H](n4ccc(N)nc4=O)O3)N(C)C)C[C@@H](COP(=O)(N(C)C)N3C[C@@H](COP(=O)(N(C)C)N4C[C@@H](COP(=O)(N(C)C)N5CCN(C(=O)CCNC(=O)CCCCCNC(=O)[C@H](CCCNC(=N)N)NC(=O)CCCCCNC(=O)[C@H](CCCNC(=N)N)NC(=O)CCCCCNC(=O)[C@H](CCCNC(=N)N)NC(=O)CCCCCNC(=O)[C@@H](N)CCCNC(=N)N)CC5)O[C@@H](n5ccc(N)nc5=O)C4)O[C@@H](n4cc(C)c(=O)[nH]c4=O)C3)O2)c(=O)[nH]c1=O (stereo partly drawn)
4 | > 80 µM | Cc1cn([C@H]2CN(P(=O)(OC[C@@H]3CN(P(=O)(OC[C@@H]4CN(P(=O)(OC[C@@H]5CN(P(=O)(OC[C@@H]6CN(P(=O)(OC[C@@H]7CN(P(=O)(OC[C@@H]8CN(P(=O)(OC[C@@H]9CN(P(=O)(OC[C@@H]%10CNC[C@H](n%11cnc%12c(=O)[nH]c(N)nc%12%11)O%10)N(C)C)C[C@H](n%10cc(C)c(=O)[nH]c%10=O)O9)N(C)C)C[C@H](n9cnc%10c(=O)[nH]c(N)nc%109)O8)N(C)C)C[C@H](n8cnc9c(N)ncnc98)O7)N(C)C)C[C@H](n7cc(C)c(=O)[nH]c7=O)O6)N(C)C)C[C@H](n6cnc7c(N)ncnc76)O5)N(C)C)C[C@H](n5cnc6c(=O)[nH]c(N)nc65)O4)N(C)C)C[C@H](n4ccc(N)nc4=O)O3)N(C)C)C[C@@H](COP(=O)(N(C)C)N3C[C@@H](COP(=O)(N(C)C)N4C[C@@H](COP(=O)(N(C)C)N5CCN(C(=O)CCNC(=O)CCCCCNC(=O)[C@H](Cc6ccccc6)NC(=O)[C@H](Cc6ccccc6)NC(=O)[C@@H](N)CCCNC(=N)N)CC5)O[C@@H](n5ccc(N)nc5=O)C4)O[C@@H](n4cc(C)c(=O)[nH]c4=O)C3)O2)c(=O)[nH]c1=O (stereo partly drawn)
5 | 5 µM (≈ 26.6 µg/mL) | Cc1cn([C@H]2CN(P(=O)(OC[C@@H]3CN(P(=O)(OC[C@@H]4CN(P(=O)(OC[C@@H]5CN(P(=O)(OC[C@@H]6CN(P(=O)(OC[C@@H]7CN(P(=O)(OC[C@@H]8CN(P(=O)(OC[C@@H]9CN(P(=O)(OC[C@@H]%10CNC[C@H](n%11cnc%12c(=O)[nH]c(N)nc%12%11)O%10)N(C)C)C[C@H](n%10cc(C)c(=O)[nH]c%10=O)O9)N(C)C)C[C@H](n9cnc%10c(=O)[nH]c(N)nc%109)O8)N(C)C)C[C@H](n8cnc9c(N)ncnc98)O7)N(C)C)C[C@H](n7cc(C)c(=O)[nH]c7=O)O6)N(C)C)C[C@H](n6cnc7c(N)ncnc76)O5)N(C)C)C[C@H](n5cnc6c(=O)[nH]c(N)nc65)O4)N(C)C)C[C@H](n4ccc(N)nc4=O)O3)N(C)C)C[C@@H](COP(=O)(N(C)C)N3C[C@@H](COP(=O)(N(C)C)N4C[C@@H](COP(=O)(N(C)C)N5CCN(C(=O)CCNC(=O)CCCCCNC(=O)[C@@H](Cc6ccccc6)NC(=O)[C@@H](Cc6ccccc6)NC(=O)[C@@H](CCCNC(=N)N)NC(=O)[C@@H](Cc6ccccc6)NC(=O)[C@@H](Cc6ccccc6)NC(=O)[C@@H](CCCNC(=N)N)NC(=O)[C@@H](Cc6ccccc6)NC(=O)[C@H](Cc6ccccc6)NC(=O)[C@H](N)CCCNC(=N)N)CC5)O[C@@H](n5ccc(N)nc5=O)C4)O[C@@H](n4cc(C)c(=O)[nH]c4=O)C3)O2)c(=O)[nH]c1=O (stereo partly drawn)
6 | > 80 µM | Cc1cn([C@H]2CN(P(=O)(OC[C@@H]3CN(P(=O)(OC[C@@H]4CN(P(=O)(OC[C@@H]5CN(P(=O)(OC[C@@H]6CN(P(=O)(OC[C@@H]7CN(P(=O)(OC[C@@H]8CN(P(=O)(OC[C@@H]9CN(P(=O)(OC[C@@H]%10CNC[C@H](n%11cnc%12c(=O)[nH]c(N)nc%12%11)O%10)N(C)C)C[C@H](n%10cc(C)c(=O)[nH]c%10=O)O9)N(C)C)C[C@H](n9cnc%10c(=O)[nH]c(N)nc%109)O8)N(C)C)C[C@H](n8cnc9c(N)ncnc98)O7)N(C)C)C[C@H](n7cc(C)c(=O)[nH]c7=O)O6)N(C)C)C[C@H](n6cnc7c(N)ncnc76)O5)N(C)C)C[C@H](n5cnc6c(=O)[nH]c(N)nc65)O4)N(C)C)C[C@H](n4ccc(N)nc4=O)O3)N(C)C)C[C@@H](COP(=O)(N(C)C)N3C[C@@H](COP(=O)(N(C)C)N4C[C@@H](COP(=O)(N(C)C)N5CCN(C(=O)CCNC(=O)CCCCCNC(=O)[C@H](CCCNC(=N)N)NC(=O)[C@@H](NC(=O)[C@@H](NC(=O)[C@H](CCCNC(=N)N)NC(=O)[C@@H](NC(=O)[C@@H](NC(=O)[C@H](CCCNC(=N)N)NC(=O)[C@@H](NC(=O)[C@@H](NC(=O)[C@@H](N)CCCNC(=N)N)C(C)C)C(C)C)C(C)C)C(C)C)C(C)C)C(C)C)CC5)O[C@@H](n5ccc(N)nc5=O)C4)O[C@@H](n4cc(C)c(=O)[nH]c4=O)C3)O2)c(=O)[nH]c1=O (stereo partly drawn)
7 | 10 µM (≈ 53.3 µg/mL) | Cc1cn([C@H]2CN(P(=O)(OC[C@@H]3CN(P(=O)(OC[C@@H]4CN(P(=O)(OC[C@@H]5CN(P(=O)(OC[C@@H]6CN(P(=O)(OC[C@@H]7CN(P(=O)(OC[C@@H]8CN(P(=O)(OC[C@@H]9CN(P(=O)(OC[C@@H]%10CNC[C@H](n%11cnc%12c(=O)[nH]c(N)nc%12%11)O%10)N(C)C)C[C@H](n%10cc(C)c(=O)[nH]c%10=O)O9)N(C)C)C[C@H](n9cnc%10c(=O)[nH]c(N)nc%109)O8)N(C)C)C[C@H](n8cnc9c(N)ncnc98)O7)N(C)C)C[C@H](n7cc(C)c(=O)[nH]c7=O)O6)N(C)C)C[C@H](n6cnc7c(N)ncnc76)O5)N(C)C)C[C@H](n5cnc6c(=O)[nH]c(N)nc65)O4)N(C)C)C[C@H](n4ccc(N)nc4=O)O3)N(C)C)C[C@@H](COP(=O)(N(C)C)N3C[C@@H](COP(=O)(N(C)C)N4C[C@@H](COP(=O)(N(C)C)N5CCN(C(=O)CCNC(=O)CCCCCNC(=O)[C@@H](N)CCCNC(=O)CCCCCNC(=O)[C@@H](N)CCCNC(=O)[C@@H](N)CCCNC(=O)CCCCCNC(=O)[C@@H](N)CCCNC(=O)[C@@H](N)CCCNC(=O)CCCCCNC(=O)[C@@H](N)CCCNC(=O)[C@@H](N)CCCNC(=O)CCCCCNC(=O)[C@@H](N)CCCN)CC5)O[C@@H](n5ccc(N)nc5=O)C4)O[C@@H](n4cc(C)c(=O)[nH]c4=O)C3)O2)c(=O)[nH]c1=O (stereo partly drawn)
8 | > 80 µM | Cc1cn([C@H]2CN(P(=O)(OC[C@@H]3CN(P(=O)(OC[C@@H]4CN(P(=O)(OC[C@@H]5CN(P(=O)(OC[C@@H]6CN(P(=O)(OC[C@@H]7CN(P(=O)(OC[C@@H]8CN(P(=O)(OC[C@@H]9CN(P(=O)(OC[C@@H]%10CNC[C@H](n%11cnc%12c(=O)[nH]c(N)nc%12%11)O%10)N(C)C)C[C@H](n%10cc(C)c(=O)[nH]c%10=O)O9)N(C)C)C[C@H](n9cnc%10c(=O)[nH]c(N)nc%109)O8)N(C)C)C[C@H](n8cnc9c(N)ncnc98)O7)N(C)C)C[C@H](n7cc(C)c(=O)[nH]c7=O)O6)N(C)C)C[C@H](n6cnc7c(N)ncnc76)O5)N(C)C)C[C@H](n5cnc6c(=O)[nH]c(N)nc65)O4)N(C)C)C[C@H](n4ccc(N)nc4=O)O3)N(C)C)C[C@@H](COP(=O)(N(C)C)N3C[C@@H](COP(=O)(N(C)C)N4C[C@@H](COP(=O)(N(C)C)N5CCN(C(=O)CCNC(=O)CCCCCNC(=O)[C@@H](N)CCCNC(=O)CCCCCNC(=O)[C@@H](N)CCCNC(=O)CCCCCNC(=O)[C@@H](N)CCCNC(=O)CCCCCNC(=O)[C@@H](N)CCCNC(=O)CCCCCNC(=O)[C@@H](N)CCCNC(=O)CCCCCNC(=O)[C@@H](N)CCCN)CC5)O[C@@H](n5ccc(N)nc5=O)C4)O[C@@H](n4cc(C)c(=O)[nH]c4=O)C3)O2)c(=O)[nH]c1=O (stereo partly drawn)
